Laboratory results reported in ChEMBL document CHEMBL4364276, “Discovery of 4-phenyl-2H-benzo[b][1,4]oxazin-3(4H)-one derivatives as potent and orally active PI3K/mTOR dual inhibitors” (Eur J Med Chem, 2019).

Columns and labels:
Homo sapiens = species on record: Homo sapiens; assay: Inhibition of human AMPK (A1/B1/G2) at 100 nM using HMRSAMSGLHLVKRR as substrate by [gamma-33P]-ATP assay
[1] = target: CDK2/Cyclin-E2 (Homo sapiens) (UniProt P24941+O96020); assay: Inhibition of human CDK2/cyclin-E2 at 100 nM using histone H1 as substrate by [gamma-33P]-ATP assay; format: protein-complex assay
[2] = target: Ephrin type-A receptor 2 (Homo sapiens) (UniProt P29317); assay: Inhibition of human EPHA2 at 100 nM using poly[Glu:Tyr] (4:1) as substrate by [gamma-33P]-ATP assay
[3] = target: Epidermal growth factor receptor (Homo sapiens) (UniProt P00533); assay: Inhibition of human EGFR at 100 nM using poly[Glu:Tyr] (4:1) as substrate by [gamma-33P]-ATP assay
[4] = target: Serine/threonine-protein kinase STK11 (Homo sapiens) (UniProt Q15831); assay: Inhibition of human LKB1 at 100 nM using LSNLYHQGKFLQTFCGSPLYRRR as substrate by [gamma-33P]-ATP assay
[5] = target: MAP kinase-activated protein kinase 3 (Homo sapiens) (UniProt Q16644); assay: Inhibition of human MAPKAPK3 at 100 nM using KKLNRTLSVA as substrate by [gamma-33P]-ATP assay
[6] = target: Death-associated protein kinase 2 (Homo sapiens) (UniProt Q9UIK4); assay: Inhibition of human DAPK2 at 100 nM using KKLNRTLSFAEPG as substrate by [gamma-33P]-ATP assay
[7] = target: Serine/threonine-protein kinase PAK 3 (Homo sapiens) (UniProt O75914); assay: Inhibition of human PAK3 at 100 nM using RRRLSFAEPG as substrate by [gamma-33P]-ATP assay
[8] = target: Phosphorylase b kinase gamma catalytic chain, liver/testis isoform (Homo sapiens) (UniProt P15735); assay: Inhibition of human PHKgamma2 at 100 nM using MBP as substrate by [gamma-33P]-ATP assay
[9] = target: Serine/threonine-protein kinase PAK 2 (Homo sapiens) (UniProt Q13177); assay: Inhibition of human PAK2 at 100 nM using RRRLSFAEPG as substrate by [gamma-33P]-ATP assay
[10] = target: Myosin light chain kinase (Homo sapiens) (UniProt Q32MK0); assay: Inhibition of human MYLK3 at 100 nM using KKRPQRRYSNVF as substrate by [gamma-33P]-ATP assay
[11] = target: eIF-2-alpha kinase GCN2 (Homo sapiens) (UniProt Q9P2K8); assay: Inhibition of human EIF2AK4 at 100 nM using MBP as substrate by [gamma-33P]-ATP assay
L02 = assay: Cytotoxicity against human LO2 cells assessed as reduction in cell viability at 0.625 to 20 uM incubated for 72 hrs by MTT assay; format: cell-based; conditions: l02, 72 h
[12] = target: Dual specificity mitogen-activated protein kinase kinase 7 (Homo sapiens) (UniProt O14733); assay: Inhibition of human MKK7 at 100 nM using JNK as substrate by [gamma-33P]-ATP assay
Chain of Dual specificity mitogen-activated protein kinase kinase 7 (Homo sapiens) (O14733 whole entry): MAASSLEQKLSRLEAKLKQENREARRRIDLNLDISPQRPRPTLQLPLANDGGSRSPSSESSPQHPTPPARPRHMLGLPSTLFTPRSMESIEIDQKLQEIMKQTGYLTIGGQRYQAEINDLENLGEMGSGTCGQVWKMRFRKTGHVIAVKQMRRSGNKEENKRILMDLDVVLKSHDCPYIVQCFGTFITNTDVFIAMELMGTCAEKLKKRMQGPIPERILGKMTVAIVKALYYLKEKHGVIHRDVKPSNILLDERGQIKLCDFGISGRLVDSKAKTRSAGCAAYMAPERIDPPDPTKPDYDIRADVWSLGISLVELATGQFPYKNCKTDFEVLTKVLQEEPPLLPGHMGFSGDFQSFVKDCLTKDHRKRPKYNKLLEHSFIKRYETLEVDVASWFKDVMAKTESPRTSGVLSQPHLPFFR

[13] = target: Insulin receptor-related protein (Homo sapiens) (UniProt P14616); assay: Inhibition of human IRR at 100 nM using MBP as substrate by [gamma-33P]-ATP assay
[14] = target: Vascular endothelial growth factor receptor 1 (Homo sapiens) (UniProt P17948); assay: Inhibition of human FLT1 at 100 nM using poly[Glu:Tyr] (4:1) as substrate by [gamma-33P]-ATP assay
Chain of Vascular endothelial growth factor receptor 1 (Homo sapiens) (P17948 whole entry): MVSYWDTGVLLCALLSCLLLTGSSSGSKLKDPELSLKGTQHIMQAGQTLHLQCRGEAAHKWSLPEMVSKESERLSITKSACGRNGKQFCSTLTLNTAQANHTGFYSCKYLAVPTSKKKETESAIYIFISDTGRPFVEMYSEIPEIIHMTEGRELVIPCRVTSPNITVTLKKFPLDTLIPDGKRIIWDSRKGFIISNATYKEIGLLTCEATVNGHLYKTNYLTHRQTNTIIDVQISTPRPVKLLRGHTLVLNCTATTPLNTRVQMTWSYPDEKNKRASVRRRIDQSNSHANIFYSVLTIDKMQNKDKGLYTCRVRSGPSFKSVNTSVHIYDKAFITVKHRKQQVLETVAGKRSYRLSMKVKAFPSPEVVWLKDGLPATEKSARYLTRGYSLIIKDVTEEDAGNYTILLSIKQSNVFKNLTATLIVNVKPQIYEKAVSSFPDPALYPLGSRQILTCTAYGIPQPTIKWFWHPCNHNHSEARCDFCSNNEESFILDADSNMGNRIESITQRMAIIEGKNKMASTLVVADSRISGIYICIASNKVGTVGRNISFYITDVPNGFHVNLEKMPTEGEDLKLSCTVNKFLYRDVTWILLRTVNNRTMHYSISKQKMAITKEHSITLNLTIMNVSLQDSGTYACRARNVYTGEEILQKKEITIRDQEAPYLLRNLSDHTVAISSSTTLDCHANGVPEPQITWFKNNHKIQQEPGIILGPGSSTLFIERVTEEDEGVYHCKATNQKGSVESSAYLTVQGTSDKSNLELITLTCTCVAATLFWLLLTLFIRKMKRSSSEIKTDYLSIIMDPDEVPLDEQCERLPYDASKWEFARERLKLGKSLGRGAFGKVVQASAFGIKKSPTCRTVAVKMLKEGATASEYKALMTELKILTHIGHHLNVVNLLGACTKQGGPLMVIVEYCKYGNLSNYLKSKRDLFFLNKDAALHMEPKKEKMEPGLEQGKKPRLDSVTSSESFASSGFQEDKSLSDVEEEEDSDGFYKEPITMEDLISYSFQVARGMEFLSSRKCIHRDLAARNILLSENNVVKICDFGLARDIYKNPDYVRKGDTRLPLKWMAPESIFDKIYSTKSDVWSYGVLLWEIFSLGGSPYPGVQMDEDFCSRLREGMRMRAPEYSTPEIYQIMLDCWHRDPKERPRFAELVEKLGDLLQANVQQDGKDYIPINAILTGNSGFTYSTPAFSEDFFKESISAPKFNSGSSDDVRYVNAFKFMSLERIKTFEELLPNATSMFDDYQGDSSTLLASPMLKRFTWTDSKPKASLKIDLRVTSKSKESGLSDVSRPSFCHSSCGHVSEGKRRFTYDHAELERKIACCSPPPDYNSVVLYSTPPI

[15] = target: CDK1/Cyclin A (Homo sapiens) (UniProt P06493+P20248); assay: Inhibition of human CDK1/Cyclin-A at 100 nM using Histone H1 as substrate by [gamma-33P]-ATP assay; format: protein-complex assay
[16] = target: Tyrosine-protein kinase Lck (Homo sapiens) (UniProt P06239); assay: Inhibition of human LCK at 100 nM using poly[Glu:Tyr] (4:1) as substrate by [gamma-33P]-ATP assay
Chain of Tyrosine-protein kinase Lck (Homo sapiens) (P06239 2-509 limits assumed): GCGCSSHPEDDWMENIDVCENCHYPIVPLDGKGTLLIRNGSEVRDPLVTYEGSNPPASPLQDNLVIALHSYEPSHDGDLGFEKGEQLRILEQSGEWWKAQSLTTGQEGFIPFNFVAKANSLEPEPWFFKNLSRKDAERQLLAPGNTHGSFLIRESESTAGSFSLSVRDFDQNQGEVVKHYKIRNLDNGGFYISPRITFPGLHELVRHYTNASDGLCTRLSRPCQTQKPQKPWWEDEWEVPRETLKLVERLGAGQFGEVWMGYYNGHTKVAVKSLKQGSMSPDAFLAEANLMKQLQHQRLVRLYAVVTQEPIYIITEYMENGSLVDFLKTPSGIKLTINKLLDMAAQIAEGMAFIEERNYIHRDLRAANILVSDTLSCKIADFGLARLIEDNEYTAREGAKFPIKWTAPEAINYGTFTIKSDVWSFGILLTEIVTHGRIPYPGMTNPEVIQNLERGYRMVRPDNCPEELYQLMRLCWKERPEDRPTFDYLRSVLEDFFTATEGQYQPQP

[17] = target: Ribosomal protein S6 kinase alpha-3 (Homo sapiens) (UniProt P51812); assay: Inhibition of human RSK2 at 100 nM using KKLNRTLSVA as substrate by [gamma-33P]-ATP assay
[18] = target: Mitogen-activated protein kinase kinase kinase 1 (Homo sapiens) (UniProt Q13233); assay: Inhibition of human MEKK1 at 100 nM using MBP as substrate by [gamma-33P]-ATP assay
Chain of Mitogen-activated protein kinase kinase kinase 1 (Homo sapiens) (Q13233 whole entry): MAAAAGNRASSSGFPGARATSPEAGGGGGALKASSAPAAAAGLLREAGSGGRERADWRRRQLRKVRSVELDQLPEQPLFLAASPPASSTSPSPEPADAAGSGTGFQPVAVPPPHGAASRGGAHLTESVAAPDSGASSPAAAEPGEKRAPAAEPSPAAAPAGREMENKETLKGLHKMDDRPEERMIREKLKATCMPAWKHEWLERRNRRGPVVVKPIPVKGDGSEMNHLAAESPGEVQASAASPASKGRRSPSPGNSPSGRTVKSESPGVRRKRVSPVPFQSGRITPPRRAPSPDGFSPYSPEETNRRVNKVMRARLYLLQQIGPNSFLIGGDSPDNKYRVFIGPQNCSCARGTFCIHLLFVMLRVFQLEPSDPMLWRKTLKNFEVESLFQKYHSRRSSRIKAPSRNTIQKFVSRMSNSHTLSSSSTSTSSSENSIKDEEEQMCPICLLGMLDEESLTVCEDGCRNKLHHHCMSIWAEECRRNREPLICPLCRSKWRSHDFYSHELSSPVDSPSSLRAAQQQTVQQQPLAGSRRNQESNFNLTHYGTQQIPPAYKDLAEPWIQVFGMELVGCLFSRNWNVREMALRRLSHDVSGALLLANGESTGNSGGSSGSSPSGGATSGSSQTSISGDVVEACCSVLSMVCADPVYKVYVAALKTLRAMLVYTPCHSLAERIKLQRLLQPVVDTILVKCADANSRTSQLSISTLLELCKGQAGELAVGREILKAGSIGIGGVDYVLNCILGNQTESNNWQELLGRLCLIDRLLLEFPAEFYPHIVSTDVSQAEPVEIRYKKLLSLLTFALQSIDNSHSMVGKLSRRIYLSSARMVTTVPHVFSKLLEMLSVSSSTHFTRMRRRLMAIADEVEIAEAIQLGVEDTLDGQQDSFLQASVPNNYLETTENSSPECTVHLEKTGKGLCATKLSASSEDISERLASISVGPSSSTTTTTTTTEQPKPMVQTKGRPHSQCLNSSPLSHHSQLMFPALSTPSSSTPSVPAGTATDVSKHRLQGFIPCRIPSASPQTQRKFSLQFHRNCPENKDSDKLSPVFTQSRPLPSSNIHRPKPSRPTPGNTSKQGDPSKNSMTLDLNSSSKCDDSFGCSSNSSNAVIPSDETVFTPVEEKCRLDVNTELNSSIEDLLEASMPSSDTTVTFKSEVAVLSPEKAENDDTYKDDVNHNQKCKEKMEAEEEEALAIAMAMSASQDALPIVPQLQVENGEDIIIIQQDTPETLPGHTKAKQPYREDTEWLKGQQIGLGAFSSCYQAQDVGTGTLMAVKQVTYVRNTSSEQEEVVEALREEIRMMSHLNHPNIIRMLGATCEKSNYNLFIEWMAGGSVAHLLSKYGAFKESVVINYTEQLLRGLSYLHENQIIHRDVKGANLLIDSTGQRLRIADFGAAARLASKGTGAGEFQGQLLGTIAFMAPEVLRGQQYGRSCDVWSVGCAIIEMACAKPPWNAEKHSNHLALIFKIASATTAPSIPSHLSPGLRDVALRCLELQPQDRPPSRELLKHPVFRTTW

[19] = target: SRSF protein kinase 3 (Homo sapiens) (UniProt Q9UPE1); assay: Inhibition of human MSSK1 at 100 nM using GRSRSRSRSR as substrate by [gamma-33P]-ATP assay
[20] = target: Hepatocyte growth factor receptor (Homo sapiens) (UniProt P08581); assay: Inhibition of human c-MET at 100 nM using KKKSPGEYVNIEFG as substrate by [gamma-33P]-ATP assay
[21] = target: RAC-beta serine/threonine-protein kinase (Homo sapiens) (UniProt P31751); assay: Inhibition of human AKT2 at 100 nM using KGSGSGRPRTSSFAEG as substrate by [gamma-33P]-ATP assay
[22] = target: Tyrosine-protein kinase ABL1 (Homo sapiens) (UniProt P00519); assay: Inhibition of human ABL1 at 100 nM using EAIYAAPFAKKK as substrate by [gamma-33P]-ATP assay
[23] = target: Mitogen-activated protein kinase 10 (Homo sapiens) (UniProt P53779); assay: Inhibition of human JNK3 at 100 nM using ATF2 as substrate by [gamma-33P]-ATP assay
[24] = target: Serine/threonine-protein kinase OSR1 (Homo sapiens) (UniProt O95747); assay: Inhibition of human OSR1 at 100 nM using RRHYYYDTHTNTYYLRTFGHNTRR as substrate by [gamma-33P]-ATP assay
[25] = target: Mitogen-activated protein kinase kinase kinase 5 (Homo sapiens) (UniProt Q99683); assay: Inhibition of human ASK1 at 100 nM using MBP as substrate by [gamma-33P]-ATP assay
[26] = target: Cyclin-Y/Cyclin-dependent kinase 16 (Homo sapiens) (UniProt Q00536+Q8ND76); assay: Inhibition of human CDK16/cyclin-Y at 100 nM using RB protein as substrate by [gamma-33P]-ATP assay; format: protein-complex assay
[27] = target: Serine/threonine-protein kinase Nek11 (Homo sapiens) (UniProt Q8NG66); assay: Inhibition of human NEK11 at 100 nM using MBP as substrate by [gamma-33P]-ATP assay
[28] = target: Ephrin type-A receptor 5 (Homo sapiens) (UniProt P54756); assay: Inhibition of human EPHA5 at 100 nM using poly[Glu:Tyr] (4:1) as substrate by [gamma-33P]-ATP assay
Chain of Ephrin type-A receptor 5 (Homo sapiens) (P54756 whole entry): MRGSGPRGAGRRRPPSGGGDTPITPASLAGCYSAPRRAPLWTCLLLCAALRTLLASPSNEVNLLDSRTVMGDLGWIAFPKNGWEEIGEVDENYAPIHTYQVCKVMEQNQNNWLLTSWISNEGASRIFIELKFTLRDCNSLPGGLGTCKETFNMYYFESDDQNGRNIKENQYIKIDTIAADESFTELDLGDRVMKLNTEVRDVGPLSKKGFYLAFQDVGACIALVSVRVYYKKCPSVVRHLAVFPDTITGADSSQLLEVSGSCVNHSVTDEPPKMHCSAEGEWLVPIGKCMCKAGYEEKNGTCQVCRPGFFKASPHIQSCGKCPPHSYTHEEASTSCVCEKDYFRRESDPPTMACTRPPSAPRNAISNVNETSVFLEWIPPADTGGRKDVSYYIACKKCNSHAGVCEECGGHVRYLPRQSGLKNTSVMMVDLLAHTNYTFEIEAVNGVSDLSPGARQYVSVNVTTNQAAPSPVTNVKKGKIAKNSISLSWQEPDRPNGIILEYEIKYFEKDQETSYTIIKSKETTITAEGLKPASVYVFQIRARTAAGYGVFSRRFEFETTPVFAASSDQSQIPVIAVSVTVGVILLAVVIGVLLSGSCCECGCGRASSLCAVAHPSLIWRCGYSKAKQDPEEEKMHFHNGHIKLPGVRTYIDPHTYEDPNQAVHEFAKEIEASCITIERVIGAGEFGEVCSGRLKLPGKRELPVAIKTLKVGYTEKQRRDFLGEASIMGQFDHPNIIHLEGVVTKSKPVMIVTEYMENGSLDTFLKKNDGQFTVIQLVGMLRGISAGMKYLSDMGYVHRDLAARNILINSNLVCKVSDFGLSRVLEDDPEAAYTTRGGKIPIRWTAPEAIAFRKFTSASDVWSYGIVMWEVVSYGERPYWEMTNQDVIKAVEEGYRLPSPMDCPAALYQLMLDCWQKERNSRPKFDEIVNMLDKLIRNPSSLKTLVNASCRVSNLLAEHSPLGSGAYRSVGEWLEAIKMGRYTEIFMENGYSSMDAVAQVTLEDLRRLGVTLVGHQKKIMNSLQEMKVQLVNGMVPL

[29] = target: Mitogen-activated protein kinase kinase kinase kinase 5 (Homo sapiens) (UniProt Q9Y4K4); assay: Inhibition of human KHS at 100 nM using MBP as substrate by [gamma-33P]-ATP assay

Work on COc1ccc(N2C(=O)COc3ccc(-c4cnc(OC)c(NS(=O)(=O)c5ccc(F)cc5)c4)cc32)cc1 yielded an inhibition (Homo sapiens) of -8.22%, an inhibition [1] of -7.8% and an inhibition [2] of 19.2%. For the same compound, the inhibition [3] was 8.4%, the inhibition [4] was -3.12% and the inhibition [5] was 12.8%. For the same compound, the inhibition [6] was -3.64%, the inhibition [7] was 4.51% and the inhibition [8] was 20%. It also gave an inhibition [9] of 10.4%, an inhibition [10] of 3.77% and an inhibition [11] of 8.65%. The Activity (L02) was “Non-Toxic”, the inhibition [12] was -2.26% and the inhibition [13] was 14.4%. It also gave an inhibition [14] of 3.08%, an inhibition [15] of 16% and an inhibition [16] of 16%. The inhibition [17] was 19.6%, the inhibition [18] was 6.33% and the inhibition [19] was 8.87%. The inhibition [20] was -7.9%, the inhibition [21] was 28.1% and the inhibition [22] was 1.19%. The inhibition [23] was -6.25%, the inhibition [24] was 4.85% and the inhibition [25] was -8.49%. For the same compound, the inhibition [26] was 0.27%, the inhibition [27] was 17.5% and the inhibition [28] was 3.06%. The inhibition [29] was -9.84%.
